Patent publication US20230226160A1, “COMPOSITIONS AND METHODS FOR TREATING BACTERIAL INFECTIONS” (MUCPHARM PTY LTD, priority 2020, published 2023)
“Also recorded” adds a separate entry of the source.

How the values were obtained:
Assay type in all cases: cell-based
[1] = test system: Staphylococcus aureus ATCC 6538 biofilms; assay: Anti-biofilm activity on preformed 24-hour/48-hour Staphylococcus aureus ATCC 6538 biofilms, 4-hour treatment, crystal violet, 590 nm; conditions: 24-hour biofilm
Procedure: The plates were then incubated at 37° C. for 4 hrs. After treatment, the cells were fixed with 99% methanol and stained with 1% crystal violet. The stained biofilm was dissolved with 33% acetic acid and the absorbance was read at 590 nm. The results were analyzed using Prism GraphPad software.

biofilm = assay: Inventor's summary statements on biofilm experiments; conditions: at therapeutically appropriate dosages
[2] = test system: Pseudomonas aeruginosa PA01 398 biofilms; assay: Anti-biofilm activity on 48-hour Pseudomonas aeruginosa PA01 398 biofilms, 4-hour combined or staged treatment, crystal violet; conditions: NAC 25 and 50 mg/ml single agent, FIG. 9
Procedure: Each plate was then incubated at 37° C. for 24 hrs and, afterwards, the plates were treated with various concentrations of acetylcysteine, bromelain, gentamicin, ampicillin and combinations thereof. The plate was then incubated at 37° C. for 4 hrs.
(§1) After treatment, the cells were fixed with 99% methanol and stained with 1% crystal violet. The stained biofilm was dissolved with 33% acetic acid and the absorbance was read at 590 nm. The results were analyzed using Prism GraphPad software.
Each plate was then incubated at 37° C. for 24 hrs and, afterwards, the plates were treated with various concentrations of acetylcysteine, bromelain and either gentamicin or ampicillin. The plate was then incubated at 37° C. for 4 hrs. After treatment, the cells were fixed with 99% methanol and stained with 1% crystal violet. The stained biofilm was dissolved with 33% acetic acid and the absorbance was read at 590 nm. The results were analyzed using Prism GraphPad software.
In the first series of experiments, the results of which are shown in FIG. 12, 48-hour Pseudomonas aeruginosa PA01 398 biofilms were treated for 4-hours with the compositions shown in the table including ampicillin (50-200 μg/mL), bromelain (25 μg/mL) and acetylcysteine (10 mg/mL) in 5% glucose. […]

[3] = test system: Pseudomonas aeruginosa ATCC 31461 biofilms; assay: Anti-biofilm activity on 48-hour Pseudomonas aeruginosa ATCC 31461 biofilms, 4-hour treatment, crystal violet; conditions: FIG. 6
Procedure: Each plate was then incubated at 37° C. for 24 hrs and, afterwards, the plates were treated with various concentrations of acetylcysteine, bromelain and/or ampicillin. The plate was then incubated at 37° C. for 4 hrs.
as §1

For `CC(=O)N[C@@H](CS)C(=O)O` [acetylcysteine], the “effect on biofilm eradication” value ([1]; acetylcysteine 20 mg/mL single treatment, 4-hour, FIG. 3) was “no effect on biofilm eradication”, the “effect of acetylcysteine alone on biofilm” value (biofilm) was “no appreciable effect; also recorded: relatively ineffective” and the “effect on biofilm as single agent” value [2] was “antagonistic”. The effectiveness on biofilm ([3]; acetylcysteine 25 mg/mL single agent) was “not effective” and the effectiveness on biofilm ([3]; acetylcysteine 50 mg/ml single agent) was “moderately effective”.

For gentamicin, the biofilm eradication ([1]; gentamicin 12 μg/ml single agent, 4-hour, FIG. 5) was 2%, the “effectiveness of single agent (eradication)” value ([1]; gentamicin 16 μg/ml single agent, compared to the concentration in combination, FIG. 5) was 5% and the biofilm eradication ([1]; gentamicin 35 μg/ml single agent, most effective gentamicin treatment) was “approximately 60%”.
